Measured values taken from patent US8350048B2, “Amide compounds as boosters of antivirals” (Janssen R&D Ireland, priority 2007, dated 2013).
Read-outs that look alike come from different tables or passages of the source.

Key:
[1] = tested on: wild-type HIV-1IIIB strain; test: Antiviral activity, MT4 LTR-EGFP cellular assay; assay type: cell-based; set-up: key to Antiviral activity IIIB (pEC50): pEC50 = -log10(EC50); conditions: wild-type HIV-1 IIIB, MT4 LTR-EGFP cells, three days after infection
[2] = tested on: MT4 CMV-EGFP cells; test: Toxicity, mock-infected MT4 CMV-EGFP cells; assay type: cell-based, human
[3] = Metabolic stability of test compounds (HLM15'); assay type: in vitro ADME, human
[4] = biological target: T1, CYP3A4 (Homo sapiens, UniProt P08684); test: CYP450 inhibition CDNA-CYP3A4-BFC; conditions: for Cyp450 inhibition: CDNA-CYP3A4-BFC (% inhibition): 10 μM test compound, substrate BFC 150 μM, 30 min
From the text: (§1) Assay 4: CYP450 Inhibition

[5] = biological target: T1, CYP3A4; test: CYP450 inhibition CDNA-CYP3A4-BQ; conditions: for Cyp450 inhibition: CDNA-CYP3A4-BQ (% inhibition): 10 μM test compound, substrate BQ 60 μM, 30 min
From the text: as §1

[6] = biological target: CYP2C9 (Homo sapiens, UniProt P11712); test: in vitro
From the text: as §1

[7] = biological target: T1, CYP3A4; test: in vitro; conditions: for Cyp450 inhibition: CDNA-CYP3A4-DBF (% inhibition): 10 μM test compound, substrate DBF 1 μM, 10 min
From the text: as §1

[8] = biological target: T2, CYP1A2 (Homo sapiens, UniProt P05177); test: CYP450 inhibition CDNA-CYP1A2-CEC; conditions: 10 μM test compound, substrate CEC 5 μM, 15 min
T2 sequence (P05177 1-516): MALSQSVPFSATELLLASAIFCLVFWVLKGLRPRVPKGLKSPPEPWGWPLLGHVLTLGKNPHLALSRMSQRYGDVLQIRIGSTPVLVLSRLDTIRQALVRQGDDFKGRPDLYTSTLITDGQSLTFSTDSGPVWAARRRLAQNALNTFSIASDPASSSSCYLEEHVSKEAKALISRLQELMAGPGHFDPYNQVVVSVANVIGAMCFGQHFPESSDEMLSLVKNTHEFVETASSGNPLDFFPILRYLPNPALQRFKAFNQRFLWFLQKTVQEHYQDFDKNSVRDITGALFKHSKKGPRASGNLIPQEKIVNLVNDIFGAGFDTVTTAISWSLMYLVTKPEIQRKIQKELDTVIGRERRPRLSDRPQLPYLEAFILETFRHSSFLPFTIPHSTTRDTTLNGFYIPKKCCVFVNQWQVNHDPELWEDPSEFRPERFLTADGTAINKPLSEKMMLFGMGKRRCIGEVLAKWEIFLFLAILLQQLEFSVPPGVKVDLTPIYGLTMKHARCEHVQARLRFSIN

[9] = biological target: T3, CYP2D6 (Homo sapiens, UniProt P10635); test: CYP450 inhibition CDNA-CYP2D6-AMMC; conditions: 10 μM test compound, substrate AMMC 3 μM, 45 min
[10] = biological target: T4, CYP2C19 (Homo sapiens, UniProt P33261); test: CYP450 inhibition CDNA-CYP2C19-CEC; conditions: 10 μM test compound, substrate CEC 25 μM, 30 min
[11] = In vivo boosting capacity: pharmacokinetics of darunavir in Beagle dogs; conditions: fed male Beagle dogs, booster 5 mg/kg oral 15 min before darunavir 5 mg/kg oral, average of 3 dogs
Procedure: Oral dosing was done by gavage. At all times, the dogs were given free and continuous access to water. Blood samples were collected from the jugular vein at 0 (=predose), 0.5, 1, 2, 4, 7, and 24 h after dose administration. The samples were centrifuged at 1900×g for 10 min at 5° C. to allow plasma separation. Separated plasma was stored in the freezer within two hours after blood sampling. At all times, blood and plasma samples were placed on melting ice and protected from light. […] Values listed are the average of 3 dogs.

[12] = Toxicity, mock-infected MT4 CMV-EGFP cells; assay type: cell-based, human; conditions: human, mock-infected MT4 CMV-EGFP cells; read-out: Toxicity MT4 (pCC50) (converted)
[13] = biological target: T3, CYP2D6; test: in vitro; conditions: pH 7.4
[14] = biological target: T2, CYP1A2; test: in vitro; conditions: E. coli expressed CYP1A2, pH 7.4, probe CEC 5 μM
[15] = biological target: T4, CYP2C19; test: in vitro; conditions: E. coli expressed CYP2C19, pH 7.4, probe CEC 25 μM
[16] = mock-infected MT4 CMV-EGFP cells
[17] = human liver microsomes 1 mg/ml, 5 μM test compound, 15 min

T4 sequence (P33261 whole entry): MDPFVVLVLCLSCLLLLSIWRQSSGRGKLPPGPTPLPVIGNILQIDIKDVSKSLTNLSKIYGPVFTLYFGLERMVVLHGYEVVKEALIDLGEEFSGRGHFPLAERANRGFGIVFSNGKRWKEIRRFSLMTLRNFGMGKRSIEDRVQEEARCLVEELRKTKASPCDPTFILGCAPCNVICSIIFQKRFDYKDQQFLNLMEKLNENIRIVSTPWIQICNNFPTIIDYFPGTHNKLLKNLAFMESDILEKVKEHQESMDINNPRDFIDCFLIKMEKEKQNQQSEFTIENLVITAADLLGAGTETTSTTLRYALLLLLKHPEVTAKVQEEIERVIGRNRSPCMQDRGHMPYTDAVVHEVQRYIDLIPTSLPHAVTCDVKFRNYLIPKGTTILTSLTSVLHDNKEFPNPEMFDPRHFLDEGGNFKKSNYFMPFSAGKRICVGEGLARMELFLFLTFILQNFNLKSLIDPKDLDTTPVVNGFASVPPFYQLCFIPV
T3 sequence (P10635 whole entry): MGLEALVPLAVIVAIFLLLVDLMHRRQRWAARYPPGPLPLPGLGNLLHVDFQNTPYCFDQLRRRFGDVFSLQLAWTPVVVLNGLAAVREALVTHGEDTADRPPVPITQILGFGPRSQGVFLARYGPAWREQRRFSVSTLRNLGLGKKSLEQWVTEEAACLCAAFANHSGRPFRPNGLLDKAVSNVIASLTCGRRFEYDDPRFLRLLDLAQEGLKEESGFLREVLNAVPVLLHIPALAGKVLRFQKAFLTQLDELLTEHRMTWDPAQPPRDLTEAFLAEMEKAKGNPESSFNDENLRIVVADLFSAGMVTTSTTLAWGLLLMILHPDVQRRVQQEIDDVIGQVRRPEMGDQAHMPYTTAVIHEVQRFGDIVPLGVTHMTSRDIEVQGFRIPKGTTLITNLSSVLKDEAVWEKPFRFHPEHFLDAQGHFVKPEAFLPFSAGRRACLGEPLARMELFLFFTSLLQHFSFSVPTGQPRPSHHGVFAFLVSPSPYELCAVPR
CYP2C9, sequence (P11712 whole entry): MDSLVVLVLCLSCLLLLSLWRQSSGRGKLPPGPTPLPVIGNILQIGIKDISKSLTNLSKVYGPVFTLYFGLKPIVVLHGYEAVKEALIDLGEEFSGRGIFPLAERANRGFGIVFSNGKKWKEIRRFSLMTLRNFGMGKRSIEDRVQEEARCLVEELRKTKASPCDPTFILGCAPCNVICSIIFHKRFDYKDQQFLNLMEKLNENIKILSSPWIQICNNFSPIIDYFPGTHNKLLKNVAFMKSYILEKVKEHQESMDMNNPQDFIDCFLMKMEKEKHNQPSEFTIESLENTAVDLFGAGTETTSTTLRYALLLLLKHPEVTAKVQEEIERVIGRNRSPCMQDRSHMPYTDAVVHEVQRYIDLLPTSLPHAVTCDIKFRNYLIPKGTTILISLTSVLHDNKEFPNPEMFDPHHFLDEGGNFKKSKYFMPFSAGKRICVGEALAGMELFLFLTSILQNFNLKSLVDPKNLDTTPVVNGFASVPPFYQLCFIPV
T1 sequence (P08684 whole entry): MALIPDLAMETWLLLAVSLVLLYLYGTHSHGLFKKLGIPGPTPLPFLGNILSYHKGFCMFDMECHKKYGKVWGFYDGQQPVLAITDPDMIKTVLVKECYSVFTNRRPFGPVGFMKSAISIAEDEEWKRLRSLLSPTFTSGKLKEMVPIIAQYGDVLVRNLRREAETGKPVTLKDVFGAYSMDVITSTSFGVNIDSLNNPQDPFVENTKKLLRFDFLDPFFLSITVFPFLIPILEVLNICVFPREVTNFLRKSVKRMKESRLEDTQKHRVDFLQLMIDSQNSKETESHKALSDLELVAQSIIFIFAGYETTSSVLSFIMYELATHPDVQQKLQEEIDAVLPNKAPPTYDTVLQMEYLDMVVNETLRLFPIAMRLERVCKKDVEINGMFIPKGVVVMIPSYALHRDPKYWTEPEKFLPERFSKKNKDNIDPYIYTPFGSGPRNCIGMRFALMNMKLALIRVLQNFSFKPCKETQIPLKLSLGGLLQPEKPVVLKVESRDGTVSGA

Compound | Antiviral activity IIIB (pEC50) [1] | Toxicity MT4 (pCC50) [2, 16] | Metabolic stability (HLM, % recovery after 15') [3, 17] | Cyp450 inhibition: CDNA-CYP3A4-BFC (% inhibition) [4] | Cyp450 inhibition: CDNA-CYP3A4-BQ (% inhibition) [5] | Cyp450 inhibition: CDNA-CYP2C9-MFC (% inhibition) [6] | Cyp450 inhibition: CDNA-CYP3A4-DBF (% inhibition) [7] | Cyp450 inhibition: CDNA-CYP1A2-CEC (% inhibition) [8] | Cyp450 inhibition: CDNA-CYP2D6-AMMC (% inhibition) [9] | Cyp450 inhibition: CDNA-CYP2C19-CEC (% inhibition) [10] | other results
CC(C)CN(C[C@@H](O)[C@H](Cc1ccccc1)NC(=O)OCc1cncs1)C(=O)c1ccc2nc(NC3CCN(C)CC3)oc2c1 [Compound C25] | <4.00 | <4.00 | 8% | 77% | 71% | 12% | 76% | 0% | 67% | 7% | –
CC(C)CN(C[C@@H](O)[C@H](Cc1ccccc1)NC(=O)OCc1cncs1)C(=O)c1ccc2nc(-c3ccncc3)oc2c1 [Compound C48] | <4.00 | <4.00 | – | 97% | 85% | 99% | 98% | 18% | 74% | 94% | Metabolic stability (HLM, % recovery after 15') [3]: 91%
CC(C)CN(C[C@@H](O)[C@H](Cc1ccccc1)NC(=O)OCc1cncs1)C(=O)c1ccc2ncsc2c1 [Compound C7] | =4.02 | – | 65% | – | – | 99% | – | – | – | – | Toxicity MT4 (pCC50) [2]: =4.00; C7h of darunavir [11]: 134 ng/mL
CCNc1nc2ccc(C(=O)N(CC(C)C)C[C@@H](O)[C@H](Cc3ccccc3)NC(=O)OCc3cncs3)cc2o1 [Compound C27] | =4.07 | <4.00 | 52% | 94% | 80% | 94% | 94% | 10% | 70% | 79% | –
CC(C)CN(C[C@@H](O)[C@H](Cc1ccccc1)NC(=O)OCc1cncs1)C(=O)c1ccc2nc(N(C)C)oc2c1 [Compound C4] | =4.33 | =4.32 | 67% | – | – | 94% | – | 7% | 26% | 82% | –
CCNc1nc2ccc(C(=O)N(C[C@@H](O)[C@H](Cc3ccccc3)NC(=O)OCc3cncs3)CC(C)(C)O)cc2o1 [Compound C44] | <4.00 | <4.00 | 70% | – | – | 95% | – | 0% | 38% | 62% | –
Cc1nc2ccc(C(=O)N(CC(C)C)C[C@@H](O)[C@H](Cc3ccccc3)NC(=O)OCc3cncs3)cc2o1 [Compound C40, Thiazol-5-ylmethyl (2S,3R)-3-hydroxy-4-(N-isobutyl-2-methylbenzo[d]-oxazole-6-carboxamido)-1-phenylbutan-2-ylcarbamate] | – | – | – | – | – | – | – | – | – | – | EC50 ([1]; Human immunodeficiency virus 1, 72 h, read-out: Antiviral activity IIIB (pEC50) (converted)): > 100 µM; CC50 at 3 days [12]: > 100 µM; recovery at 15 min, 5 μM ([3]; pH 7.4, human liver microsomes 1 mg/ml, 5 μM test compound, 15 min, read-out: Metabolic stability (HLM, % recovery after 15')): 60%; inhibition at 30 min, 10 μM ([4]; human, E. coli expressed CYP3A4, pH 7.4, probe BFC 150 μM): 94%; inhibition at 30 min, 10 μM ([5]; human, E. coli expressed CYP3A4, pH 7.4, probe BQ 60 μM): 74%; inhibition at 30 min, 10 μM ([6]; human, pH 7.4): 89%; inhibition at 10 min, 10 μM ([7]; human, pH 7.4): 91%; inhibition at 45 min, 10 μM [13]: 56%; inhibition at 15 min, 10 μM [14]: 0%; inhibition at 30 min, 10 μM [15]: 79%
